Consider one compound from patent US20250026741A1, “INHIBITORS OF THE ONCOGENIC SHP2 PHOSPHATASE AND USES THEREOF” (Sanford Burnham Prebys Medical Discovery Institute, priority 2021, published 2025).

For assay [1], the system named is p-ERK1/2 in U-937 AML cells (SHP2 G60R). Description: Phospho-ERK1/2 immunoblot analysis, U-937. The class given is cell-based. To be noted: U-937, 24 h; #02 1, 3, 10, 30 μM; RMC-4550 1 μM. The text has this: Oncogenic gain-of-function mutations in SHP2 drive leukemogenesis in a significant number of leukemia patients. However, due to their unique mechanism of action, the existing SHP2 allosteric inhibitors lack activity against the most common SHP2 oncogenic variants. Thus, we tested whether #02 can inhibit the growth of leukemia cells expressing oncogenic SHP2 variants. […] Using the U-937 AML cell line, which harbors a G60R oncogenic mutation in SHP2, we treated cells with either #02 or RMC-4550 at various concentrations, ranging from 0.123 to 30 μM (FIG. 4A). […] We also assessed the effects of #02 and RMC-4550 on ERK1/2 activation in the SHP2 mutant U-937 cell line. Similar to the immunoblot experiments described above, U-937 AML cells were treated with either vehicle control (DMSO), #02 (1, 3, 10, or 30 μM), or with RMC-4550 (1 μM) for 24 h and processed for p-ERK1/2 immunoblot analysis (FIG. 4B).
Total protein extracts were prepared in modified RIPA lysis buffer (25 mM Tris-HCl, pH 7.4, 10% glycerol, 0.2% Triton™ X-100, 150 mM NaCl, 2 mM Na3VO4, 1 mM EDTA) containing a protease inhibitor cocktail (Roche Applied Science, Indianapolis, IN). […] Densitometric quantitation of immunoblots was performed using Image Studio Lite Software. Changes of phosphorylated ERK1/2 to total ERK1/2 rations are expressed as percentage of the vehicle-treated controls. […]
A general note: Immunoblotting shows a protein as a band on a membrane.

Assay [2] deals with TNBC cells (BT-549 and MDA-MB-468). Put plainly: 11-day colony formation assay. The class given is cell-based. To be noted: 5, 10, or 20 μM, 11 days. How it is done: Next, we performed an 11-day colony formation assay with TNBC cells treated with #02 or SHP099 at 5, 10, or 20 μM (FIG. 3D).
MDA-MB-468 and […] triple-negative breast cancer cells were maintained in DMEM+10% FBS supplemented with 1× Penicillin-Streptomycin/L-Glutamine (Omega Scientific). 1.5K cells (in […]) were seeded per well of a standard 24-well tissue culture plate (Falcon) and allowed to adhere for 24 h, before the addition of drug(s) as described. After a further 96 h, media was replaced with fresh media containing the same test compounds and concentrations. After 11 days, media was removed and cells stained with 0.5% Crystal Violet (in 20% methanol) for 20 min with agitation @ 80 rpm. Stain was removed and plates with stained cells were washed by being submerged in excess deionized water and allowed to air dry overnight before imaging.

The test system of assay [3] is patient-derived AML cells. Put plainly: Viability of AML patient-derived cells. The format is cell-based, human. To be noted: 10 μM, two patient samples, 2 d, 4 d, or 6 d. From the text: Patient-derived AML cells were obtained from Carol Burian and Dr. James Mason (Scripps MD Anderson, La Jolla, CA) under approved IRB protocol 13-6180. Peripheral blood mononuclear cells (PBMCs) were isolated by traditional Ficoll-Paque™ PLUS (17-1440-02, GE Healthcare) centrifugation according to the manufacturer's instructions, and red blood cells were lysed using RBC Lysis Buffer (Alfa Aesar, cat. #J62990). Final PBMCs were resuspended in Bambanker serum-free freezing medium (Wako Pure Chemical Industries, Ltd.) and stored frozen before cell viability was assessed as described below.
Viability of AML, esophageal carcinoma, and TF-1 cells was assessed using the ATP-depletion assay CellTiter-Glo® (Promega). Cells were harvested at 1×10^6/mL to 2×10^6 cells/mL with cell numbers determined by trypan blue using the Countess Cell counter (Thermo Scientific) and resuspended in culture media. 3K cells (in […]) were seeded in a 384-well format white, clear bottom microplate (#781098, Greiner) spotted with test compound or vehicle control (DMSO) using an Echo 555 Liquid Handler. […] Luminescence was read on a Tecan Spark® Multimode Microplate Reader and data analyzed using Graph Pad Prism software.

`O=C(Nc1ccccc1)c1cc(-c2ccc(/C=C3\Sc4ccccc4C3=O)o2)ccc1O` [#02, (Z)-2-hydroxy-5-(5-((3-oxobenzo[b]thiophen-2(3H)-ylidene)methyl)furan-2-yl)-N-phenylbenzamide]: in assay [1], the “ERK1/2 activation (p-ERK1/2 levels)” value was “dose-dependently inhibited ERK1/2 activation”. In addition, in assay [2], the “effect on colony formation” value is given as “colonies were undetectable”. In assay [3], the “effect on growth of patient-derived AML samples” value was “inhibited the growth of both AML patient samples”.
